Earlier results, collected in PMC9780888, “4-Isobutylmethcathinone—A Novel Synthetic Cathinone with High In Vitro Cytotoxicity and Strong Receptor Binding Preference of Enantiomers” (Pharmaceuticals, 2022).

Columns and labels:
[1] = system: SH-SY5Y cells; set-up: method as in PMID 31473217; conditions: 24 h of exposure ref 20; cited from earlier work
[2] = system: DAR2-like family receptors vs DAR1-like family of receptors; conditions: cited from earlier work
[3] = system: HTR receptor; set-up: method as in PMID 22897747; conditions: cited from earlier work
[4] = system: SERT; conditions: S- versus R-enantiomer, 13 in b3; cited from earlier work
[5] = system: neuronal differentiated SH-SY5Y cells; set-up: method as in PMID 25624004; conditions: 24-h exposure, ToxiLight BioAssay ref 30; cited from earlier work
[6] = system: HTR2A; set-up: method as in PMID 22897747; conditions: cited from earlier work

CNC(C)C(=O)c1ccc(C)c(C)c1 (stereo not drawn) [3,4-DMMC]
IC50 [1]: > 1 mM

NCCc1ccc(O)c(O)c1 [DA, dopamine]
affinity of DAR2-like family receptors relative to DAR1-like family [2]: 10-100 fold

CCNC(C)Cc1ccc2c(c1)OCO2 (stereo not drawn) [MDEA, 3,4-methylenedioxy-N-ethylamphetamine]
HTR receptor binding activity [3]: has not been demonstrated

CNC(C)Cc1ccc2c(c1)OCO2 (stereo not drawn) [MDMA, 3,4-methylenedioxymethamphetamine]
HTR receptor binding activity [3]: has not been demonstrated

CN[C@@H](C)C(=O)c1ccc(C)cc1 [S-mephedrone]
potency as SERT releaser relative to R-mephedrone [4]: 40 times

CCCC(C(=O)c1ccccc1)N1CCCC1 (stereo not drawn) [alpha-PVP]
reported value for mitochondrial dysfunction [5]: above 100 mM

CNC(C)C(=O)c1ccc(F)cc1 (stereo not drawn) [flephedrone]
HTR2A-binding activity [6]: has been previously described

CNC(C)C(=O)c1ccc(C)cc1 (stereo not drawn) [mephedrone]
HTR2A-binding activity [6]: has been previously described

CNC(C)C(=O)c1ccccc1 (stereo not drawn) [methcathinone]
HTR2A-binding activity [6]: has been previously described
